Measured values reported in EP3325465B1, “PESTICIDALLY ACTIVE PYRAZOLE DERIVATIVES” (Syngenta Participations AG, priority 2015, dated 2017).
Like-named read-outs stand apart in the source and are kept apart here.

What was measured:
Type in all cases: in vivo
[1] = test system: Plutella xylostella (Diamond back moth); experiment: Plutella xylostella artificial diet test, L2 larvae; conditions: 120 h, application rate of 200 ppm, mortality and growth inhibition 5 days after infestation
Excerpt: (§1) The pesticidal/insecticidal properties of the compounds according to embodiments 1 or 2 can be illustrated via the following tests: Spodoptera littoralis (Egyptian cotton leaf worm) • Cotton leaf discs were placed onto agar in 24-well microtiter plates and sprayed with aqueous test solutions prepared from 10'000 ppm DMSO stock solutions. After drying the leaf discs were infested with five L1 larvae. […] Plutella xylostella (Diamond back moth): 24-well microtiter plates with artificial diet were treated with aqueous test solutions prepared from 10'000 ppm DMSO stock solutions by pipetting. After drying, the plates were infested with L2 larvae (10 to 15 per well). The samples were assessed for mortality and growth inhibition in comparison to untreated samples 5 days after infestation. […] Diabrotica balteata, (Corn root worm) • Maize sprouts placed onto an agar layer in 24-well microtiter plates were treated with aqueous test solutions prepared from 10'000 ppm DMSO stock solutions by spraying. After drying, the plates were infested with L2 larvae (6 to 10 per well). […] Thrips tabaci (Onion thrips): Sunflower leaf discs were placed on agar in 24-well microtiter plates and sprayed with aqueous test solutions prepared from 10'000 ppm DMSO stock solutions. After drying the leaf discs were infested with a thrips population of mixed ages. The samples were assessed for mortality 6 days after infestation. […] Tetranychus urticae (Two-spotted spider mite): Bean leaf discs on agar in 24-well microtiter plates were sprayed with aqueous test solutions prepared from 10'000 ppm DMSO stock solutions. After drying the leaf discs were infested with a mite population of mixed ages. The samples were assessed for mortality on mixed population (mobile stages) 8 days after infestation. […] Euschistus heros (Neotropical Brown Stink Bug): • Two weeks old soybean plants were sprayed in a turn table spray chamber with the diluted spray solutions. After drying 2 soybean seeds were added and plants were infested with 10 N2 nymphs of the neotropical brown stink bug Euschistus heros in plastic test boxes. The samples were assessed for mortality in comparison to untreated samples 5 days after infestation. • The following compounds gave at least 80% mortality of Euschistus heros at an application rate of 12.5 ppm: Compounds 3 , 4 , 8 , 39 , 43 , 44 , 46 , 75 , 76 , 77 , 78 , 79 , 80 , 81 , 82 , 88 , 90 , 93 and 95 . Myzus persicae (Green peach aphid): Sunflower leaf discs were placed on agar in a 24-well microtiter plate and sprayed with test solutions at an application rate of 200 ppm. After drying, the leaf discs were infested with an aphid population of mixed ages. After an incubation period of 6 DAT, samples were checked for mortality. The following compounds gave at least 50% mortality of Myzus persicae: Compounds 3 , 4 , 8 , 43 , 44 , 75 , 76 , 77 , 80 , 81 , 90 and 92 . Myzus persicae (Green peach aphid): • Test compounds were applied by pipette into 24 well plates and mixed with Sucrose solution. Application rate: 12.5ppm. The plates were closed with a stretched parafilm. A plastic stencil with 24 holes is placed onto the plate and infested pea seedlings were placed directly on the Parafilm. The infested plate is closed with a gel blotting paper and another plastic stencil and then turned upside down. […]

[2] = test system: Thrips tabaci (Onion thrips); experiment: Thrips tabaci sunflower leaf disc spray test; conditions: foliar, 144 h, application rate of 200 ppm, mortality 6 days after infestation, mixed ages
Excerpt: as §1

[3] = test system: Myzus persicae (Green peach aphid); experiment: Myzus persicae sucrose solution / Parafilm feeding test; conditions: 120 h, read-out: mortality of Myzus persicae
Excerpt: as §1

[4] = test system: Spodoptera littoralis (Egyptian cotton leaf worm); experiment: Spodoptera littoralis cotton leaf disc spray test, L1 larvae; conditions: foliar, 72 h
Excerpt: as §1

[5] = test system: Diabrotica balteata, (Corn root worm); experiment: Diabrotica balteata maize sprout spray test, L2 larvae; conditions: 96 h
Excerpt: as §1

[6] = test system: Tetranychus urticae (Two-spotted spider mite); experiment: Tetranychus urticae bean leaf disc spray test; conditions: foliar, 192 h, application rate of 200 ppm, mortality on mixed population (mobile stages) 8 days after infestation
Excerpt: as §1

[7] = test system: Euschistus heros (Neotropical Brown Stink Bug); experiment: Euschistus heros soybean plant spray test, N2 nymphs; conditions: 120 h, application rate of 12.5 ppm, 5 days after infestation, N2 nymphs, read-out: mortality of Euschistus heros
Excerpt: as §1

[8] = Application rate: 12.5ppm, sucrose solution, 5 days after infestation
[9] = application rate of 200 ppm, 3 days after infestation, L1 larvae, read-out: mortality
[10] = application rate of 200 ppm, 4 days after infestation, L2 larvae, read-out: mortality

Cn1nc(C(F)(F)C(F)(F)F)c(C(F)(F)F)c1-c1noc(-c2ccc(Cl)c(C(=O)NC3(C#N)CC3)c2)n1 [Compound 10, 2-Chloro-N-(1-cyanocyclopropyl)-5-[3-[2-methyl-5-(1,1,2,2,2-pentafluoroethyl)-4-(trifluoromethyl)pyrazol-3-yl]-1,2,4-oxadiazol-5-yl]benzamide]
≥ 80%: pest or weed control at 200 ppm [1] | pest or weed control at 200 ppm [2] | mortality at 12.5 ppm [3] | mortality at 200 ppm [4] | mortality at 200 ppm [5]

Cn1cc(-c2c(C(F)(F)F)c(C(F)(F)C(F)(F)F)nn2C)nc1-c1ccc(Cl)c(C(=O)NC2CC2)c1 [Compound 29, 2-chloro-N-cyclopropyl-5-[1-methyl-4-[2-methyl-5-(1,1,2,2,2-pentafluoroethyl)-4-(trifluoromethyl)pyrazol-3-yl]imidazol-2-yl]benzamide]
≥ 80%: pest or weed control at 200 ppm [1] | mortality at 12.5 ppm [3, 8] | mortality at 200 ppm [4, 9] | pest or weed control at 200 ppm [6] | mortality at 200 ppm [5, 10]

Cn1nc(C(F)(F)C(F)(F)F)c(C(F)(F)F)c1-c1cnn(-c2ccc(Cl)c(C(=O)NC3(C#N)CC3)c2)c1 [Compound 38, 2-chloro-N-(1-cyanocyclopropyl)-5-[4-[2-methyl-5-(1,1,2,2,2-pentafluoroethyl)-4-(trifluoromethyl)pyrazol-3-yl]pyrazol-1 - yl]benzamide]
≥ 80%: mortality at 12.5 ppm [3, 8]

Cn1nc(C(F)(F)C(F)(F)F)c(C(F)(F)F)c1-c1cc(-c2ccc(Cl)c(C(=O)NC3(C#N)CC3)c2)ns1 [Compound 46, 2-chloro-N-(1-cyanocyclopropyl)-5-[5-[2-methyl-5-(1,1,2,2,2-pentafluoroethyl)-4-(trifluoromethyl)pyrazol-3-yl]isothiazol-3-yl]benzamide]
≥ 80%: mortality at 200 ppm [4, 9] | mortality at 12.5 ppm [7]

Cn1nc(C(F)(F)C(F)(F)F)c(C(F)(F)F)c1-c1cc(-c2ccc(Cl)c(C(=O)NC3(C#N)CC3)c2)[nH]n1 [Compound 72, 2-chloro-N-(1-cyanocyclopropyl)-5-[3-[2-methyl-5-(1,1,2,2,2-pentafluoroethyl)-4-(trifluoromethyl)pyrazol-3-yl]-1H-pyrazol-5-yl]benzamide]
≥ 80%: pest or weed control at 200 ppm [1] | mortality at 12.5 ppm [3, 8] | mortality at 200 ppm [4, 9] | mortality at 200 ppm [5, 10]

Cn1nc(C(F)(F)C(F)(F)F)c(C(F)(F)F)c1-c1cc(-c2ccc(Cl)c(C(=O)NC3CCOC3=O)c2)on1 (stereo not shown) [Compound 78, 2-chloro-5-[3-[2-methyl-5-(1,1,2,2,2-pentafluoroethyl)-4-(trifluoromethyl)pyrazol-3-yl]isoxazol-5-yl]-N-(2-oxotetrahydrofuran-3-yl)benzamide]
≥ 80%: pest or weed control at 200 ppm [2] | mortality at 200 ppm [4, 9] | mortality at 12.5 ppm [7] | pest or weed control at 200 ppm [6] | mortality at 200 ppm [5, 10]

C#CCNC(=O)c1cc(-c2cc(-c3c(C(F)(F)F)c(C(F)(F)C(F)(F)F)nn3C)no2)ccc1Cl [Compound 79, 2-chloro-5-[3-[2-methyl-5-(1,1,2,2,2-pentafluoroethyl)-4-(trifluoromethyl)pyrazol-3-yl]isoxazol-5-yl]-N-prop-2-ynyl-benzamide]
≥ 80%: pest or weed control at 200 ppm [1] | pest or weed control at 200 ppm [2] | mortality at 200 ppm [4, 9] | mortality at 12.5 ppm [7] | pest or weed control at 200 ppm [6] | mortality at 200 ppm [5, 10]

C=C(Cl)CNC(=O)c1cc(-c2cc(-c3c(C(F)(F)F)c(C(F)(F)C(F)(F)F)nn3C)no2)ccc1Cl [Compound 82, 2-chloro-N-(2-chloroallyl)-5-[3-[2-methyl-5-(1,1,2,2,2-pentafluoroethyl)-4-(trifluoromethyl)pyrazol-3-yl]isoxazol-5-yl]benzamide]
≥ 80%: pest or weed control at 200 ppm [1] | pest or weed control at 200 ppm [2] | mortality at 200 ppm [4, 9] | mortality at 12.5 ppm [7] | mortality at 200 ppm [5, 10]

Cn1nc(C(F)(F)C(F)(F)F)c(C(F)(F)F)c1-c1cc(-c2ccc(Cl)c(C(=O)NC3(C(F)(F)F)CC3)c2)on1 [Compound 88, 2-chloro-5-[3-[2-methyl-5-(1,1,2,2,2-pentafluoroethyl)-4-(trifluoromethyl)pyrazol-3-yl]isoxazol-5-yl]-N-[1-(trifluoromethyl)cyclopropyl]benzamide]
≥ 80%: pest or weed control at 200 ppm [1] | pest or weed control at 200 ppm [2] | mortality at 200 ppm [4, 9] | mortality at 12.5 ppm [7] | mortality at 200 ppm [5, 10]

Cn1nc(C(F)(F)C(F)(F)F)c(C(F)(F)F)c1-c1cc(-c2ccc(Cl)c(C(=O)Nc3ccncc3)c2)on1 [Compound 89, 2-chloro-5-[3-[2-methyl-5-(1,1,2,2,2-pentafluoroethyl)-4-(trifluoromethyl)pyrazol-3-yl]isoxazol-5-yl]-N-(4-pyridyl)benzamide]
≥ 80%: pest or weed control at 200 ppm [1] | pest or weed control at 200 ppm [2] | mortality at 200 ppm [4, 9] | pest or weed control at 200 ppm [6] | mortality at 200 ppm [5, 10]

Cn1nc(C(F)(F)C(F)(F)F)c(C(F)(F)F)c1-c1cc(-c2ccc(Cl)c(C(N)=O)c2)on1 [Compound 94, 2-chloro-5-[3-[2-methyl-5-(1,1,2,2,2-pentafluoroethyl)-4-(trifluoromethyl)pyrazol-3-yl]isoxazol-5-yl]benzamide]
≥ 80%: pest or weed control at 200 ppm [1] | pest or weed control at 200 ppm [2] | mortality at 200 ppm [4, 9] | pest or weed control at 200 ppm [6] | mortality at 200 ppm [5, 10]

Cn1nc(C(F)(F)C(F)(F)F)c(C(F)(F)F)c1-c1cc(-c2ccc(Cl)c(C(=O)NC3(c4ccccn4)CC3)c2)on1 [Compound 95, 2-chloro-5-[3-[2-methyl-5-(1,1,2,2,2-pentafluoroethyl)-4-(trifluoromethyl)pyrazol-3-yl]isoxazol-5-yl]-N-[1-(2-pyridyl)cyclopropyl]benzamide]
≥ 80%: pest or weed control at 200 ppm [1] | pest or weed control at 200 ppm [2] | mortality at 200 ppm [4, 9] | mortality at 12.5 ppm [7] | mortality at 200 ppm [5, 10]

Cn1nc(C(F)(F)C(F)(F)F)c(C(F)(F)F)c1-c1cc(-c2ccc(Cl)c(C(=O)NCC(F)(F)F)c2)on1 [Compound 96, 2-chloro-5-[3-[2-methyl-5-(1,1,2,2,2-pentafluoroethyl)-4-(trifluoromethyl)pyrazol-3-yl]isoxazol-5-yl]-N-(2,2,2-trifluoroethyl)benzamide]
≥ 80%: pest or weed control at 200 ppm [1] | pest or weed control at 200 ppm [2] | mortality at 12.5 ppm [3, 8] | mortality at 200 ppm [4, 9] | mortality at 200 ppm [5, 10]

Cn1nc(C(F)(F)C(F)(F)F)c(C(F)(F)F)c1-c1cc(-c2ccc(Cl)c(C(=O)NCC(F)F)c2)on1 [Compound 97, 2-chloro-N-(2,2-difluoroethyl)-5-[3-[2-methyl-5-(1,1,2,2,2-pentafluoroethyl)-4-(trifluoromethyl)pyrazol-3-yl]isoxazol-5-yl]benzamide]
≥ 80%: pest or weed control at 200 ppm [1] | mortality at 12.5 ppm [3, 8] | mortality at 200 ppm [4, 9] | mortality at 200 ppm [5, 10]

C=C(C)CNC(=O)c1cc(-c2cc(-c3c(C(F)(F)F)c(C(F)(F)C(F)(F)F)nn3C)no2)ccc1Cl [Compound 98, 2-chloro-N-(2-methylallyl)-5-[3-[2-methyl-5-(1,1,2,2,2-pentafluoroethyl)-4-(trifluoromethyl)pyrazol-3-yl]isoxazol-5-yl]benzamide]
≥ 80%: pest or weed control at 200 ppm [1] | pest or weed control at 200 ppm [2] | mortality at 200 ppm [4, 9] | pest or weed control at 200 ppm [6] | mortality at 200 ppm [5, 10]
